From patent US12214017B2, “GLP-1 compositions and uses thereof” (Novo Nordisk A/S, priority 2017, dated 2025)

Assay: Assay (III): purity of liraglutide by HPLC (chemical stability)
Format: physicochemical
Details: composition without phenol, compared with phenol-containing compositions
Procedure: Assay (III): Determination of Purity of Liraglutide
Determination of purity was performed using high performance liquid chromatography (HPLC) using a Waters XTerra™ MS C18 column with a gradient elution of two mobile phases, where one mobile phase was an aqueous ammonium phosphate buffer (pH 8)/acetonitrile mixture and the other mobile phase was acetonitrile in water. Detection was performed at 215 nm.
The results in Table 5 were obtained as follows: Compositions comprising liraglutide were tested. The tested compositions contained liraglutide (as specified in Table 4), mannitol (36.9 mg/ml), disodium hydrogen phosphate (1.42 mg/ml), and optionally phenol (as specified in Table 4), at pH 7.4 in an aqueous solution. These compositions were prepared as described herein in the section General Methods of Preparation. Chemical stability as expressed by purity was determined by Assay (III) described herein at start of the experiment and after storage at 25° C. or at 37° C.

- Chemical stability of liraglutide (in words): less chemically stable
Structure (SMILES): CCCCCCCCCCCCCCCC(=O)N[C@@H](CCC(=O)NCCCC[C@H](NC(=O)[C@H](C)NC(=O)[C@H](C)NC(=O)[C@H](CCC(N)=O)NC(=O)CNC(=O)[C@H](CCC(=O)O)NC(=O)[C@H](CC(C)C)NC(=O)[C@H](Cc1ccc(O)cc1)NC(=O)[C@H](CO)NC(=O)[C@H](CO)NC(=O)[C@@H](NC(=O)[C@H](CC(=O)O)NC(=O)[C@H](CO)NC(=O)[C@@H](NC(=O)[C@H](Cc1ccccc1)NC(=O)[C@@H](NC(=O)CNC(=O)[C@H](CCC(=O)O)NC(=O)[C@H](C)NC(=O)[C@@H](N)Cc1cnc[nH]1)[C@@H](C)O)[C@@H](C)O)C(C)C)C(=O)N[C@@H](CCC(=O)O)C(=O)N[C@@H](Cc1ccccc1)C(=O)N[C@H](C(=O)N[C@@H](C)C(=O)N[C@@H](Cc1c[nH]c2ccccc12)C(=O)N[C@@H](CC(C)C)C(=O)N[C@H](C(=O)N[C@@H](CCCNC(=N)N)C(=O)NCC(=O)N[C@@H](CCCNC(=N)N)C(=O)NCC(=O)O)C(C)C)[C@@H](C)CC)C(=O)O [liraglutide]
